Patent US20100081719A1 (priority 2006, published 2010)
Where a name gives a salt, the structure may show the parent alone.

System: patients who meet the 1990 ACR criteria for fibromyalgia syndrome
Test: Multicenter, double-blind, randomized, placebo-controlled monotherapy study of milnacipran for treatment of fibromyalgia (Example 2)
Format: in vivo, human
Details: 3-month treatment period (LOCF), intent-to-treat; for MFI total score, Change from baseline, Difference from Placebo / MFI total score, Change from baseline, LS Mean (SE): ANCOVA
Description: This was a multicenter, randomized, double-blind, placebo-controlled three-arm study designed which enrolled 1196 patients who meet the 1990 ACR criteria for fibromyalgia syndrome (history of widespread pain and pain in 11 of 18 tender point sites on digital palpation), as well as the more detailed admission criteria outlined in the protocol.
All randomized medications (placebo and milnacipran) were administered twice a day (BID).
(i) Primary Efficacy Assessments: Patient Global Impression of Change (PGIC) administered to patients at visits Tx3, Tx7, Tx11 and Tx15/ET; Physical Component summary of SF-36 (SF-36 PCS) administered to patients at visits BL2/Tx0, Tx3, Tx7, Tx11 and Tx15/ET; (ii) Secondary Efficacy Assessments: Time weighted average (AUC) of weekly average PED morning recall pain score; PGIC and SF-36 PCS administered to patients at visits Tx3 to Tx15.
(iii) Additional Efficacy Measurements: The Fibromyalgia Impact Questionnaire (FIQ) total score and physical function, Beck Depression Inventory (BDI), the MOS-Sleep Index Scale, the Arizona Sexual Experiences Scale (ASEX), Patient pain 24 hour and 7 day recall VAS, the SF-36 individual domains, Patient Global Disease Status, Patient Global Therapeutic Benefit, the Multiple Ability Self-report Questionnaire (MASQ, cognitive function), the Multidimensional Health Assessment Questionnaire (MDHAQ), Multidimensional Fatigue Inventory (MFI), and diary assessments including current pain (morning, random daily, and evening reports); overall pain past week (weekly report), overall fatigue in the last week (weekly report), and the extent that pain kept the patient from caring for themselves (weekly report).

## CCN(CC)C(=O)C1(c2ccccc2)CC1CN (racemic) [milnacipran, Z-2-aminomethyl-1-phenyl-N, N-diethylcyclopropanecarboxamide hydrochloride]
100 mg milnacipran
  MFI total score, Actual, Mean: 63.00
  MFI total score, Actual, Median: 64.0
  MFI total score, Change from baseline, Mean: −5.39
  MFI total score, Change from baseline, Median: −4.0
  MFI total score, Change from baseline, Difference from Placebo: −1.80
  MFI total score, Change from baseline, LS Mean (SE): −5.47 (0.792)
200 mg milnacipran
  MFI total score, Actual, Mean: 64.15
  MFI total score, Actual, Median: 65.0
  MFI total score, Change from baseline, Mean: −5.39
  MFI total score, Change from baseline, Median: −4.0
  MFI total score, Change from baseline, Difference from Placebo: −1.55
  MFI total score, Change from baseline, LS Mean (SE): −5.63 (0.787)
